Measured values as given in PubChem BioAssay (NCI).
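Assay format: 96-well plates, 48-hour exposure. TGI: total growth inhibition.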

Legend:
Experiment in all cases: inhibition of tumour cell growth, NCI panel, 48 h
NCI-H460 lung = system: NCI-H460 lung
K-562 leukemia = system: K-562 leukemia
HCT-116 colon = system: HCT-116 colon
SF-539 CNS = system: SF-539 CNS
UACC-62 melanoma = system: UACC-62 melanoma
TK-10 renal = system: TK-10 renal
MDA-MB-435 = system: MDA-MB-435
HS 578T breast = system: HS 578T breast
SF-295 CNS = system: SF-295 CNS
NCI/ADR-RES ovarian = system: NCI/ADR-RES ovarian
OVCAR-4 ovarian = system: OVCAR-4 ovarian
CAKI-1 renal = system: CAKI-1 renal
SK-MEL-28 melanoma = system: SK-MEL-28 melanoma
HOP-92 NSCLC = system: HOP-92 NSCLC
IGROV1 ovarian = system: IGROV1 ovarian
SK-MEL-2 melanoma = system: SK-MEL-2 melanoma
M14 melanoma = system: M14 melanoma
NCI-H522 lung = system: NCI-H522 lung
CCRF-CEM leukemia = system: CCRF-CEM leukemia
SNB-19 CNS = system: SNB-19 CNS
OVCAR-3 ovarian = system: OVCAR-3 ovarian
MALME-3M melanoma = system: MALME-3M melanoma
OVCAR-8 ovarian = system: OVCAR-8 ovarian
HT29 colon = system: HT29 colon
SW-620 colon = system: SW-620 colon
RXF 393 renal = system: RXF 393 renal
PC-3 prostate = system: PC-3 prostate
NCI-H226 lung = system: NCI-H226 lung
MOLT-4 leukemia = system: MOLT-4 leukemia
COLO 205 colon = system: COLO 205 colon
HCC-2998 colon = system: HCC-2998 colon
LOX IMVI melanoma = system: LOX IMVI melanoma
SK-OV-3 ovarian = system: SK-OV-3 ovarian
HOP-62 NSCLC = system: HOP-62 NSCLC
RPMI-8226 leukemia = system: RPMI-8226 leukemia
DU-145 prostate = system: DU-145 prostate
SR leukemia = system: SR leukemia
SNB-75 CNS = system: SNB-75 CNS
U251 CNS = system: U251 CNS
A498 renal = system: A498 renal
HL-60(TB) leukemia = system: HL-60(TB) leukemia
MDA-N = system: MDA-N
SN12C renal = system: SN12C renal
SK-MEL-5 melanoma = system: SK-MEL-5 melanoma
UO-31 renal = system: UO-31 renal
SF-268 CNS = system: SF-268 CNS
786-0 renal = system: 786-0 renal
A549 NSCLC = system: A549 NSCLC
EKVX NSCLC = system: EKVX NSCLC
ACHN renal = system: ACHN renal
KM12 colon = system: KM12 colon
MDA-MB-231 breast = system: MDA-MB-231 breast
UACC-257 melanoma = system: UACC-257 melanoma
T-47D breast = system: T-47D breast
NCI-H23 lung = system: NCI-H23 lung
HCT-15 colon = system: HCT-15 colon
MCF7 breast = system: MCF7 breast

Measured: TGI

Clc1ccc(Cl)c(N=Nc2cc3c4c(c2)CCCN4CCC3)c1
> 10 µM: all assays above
